# Results from patent US20100273801A1, “BETULIN DERIVED COMPOUNDS USEFUL AS ANTIBACTERIAL AGENTS” (Valition teknillinen tutikimuskeskus, priority 2006, published 2010).
# Where a name gives a salt, the structure may show the parent alone. Read-outs that look alike come from different tables or passages of the source.
# Legend:
# Micrococcus luteus = assay: turbidometric bacterial growth inhibition on a 96 well plate; conditions: for percent growth inhibition M. luteus 4 h / percent growth inhibition M. luteus 24 h: compound 1 mg/ml; for inhibition at 1000 µg/mL / inhibition at 0.1 µg/mL / inhibition at 1 µg/mL: Micrococcus luteus
# Experimental: (§1) The antimicrobial efficiency of betulin derived compounds against Staphylococcus aureus, Staphylococcus epidemidis, Micrococcus luteus and Bacillus subtilis was studied using a turbidometric method on a 96 well plate.
# (§2) After juvenescence, suspension cultivation was prepared from the bacterial strains in the Todd-Hewitt broth. The suspension was introduced with a pipette to a 96 well plate, followed by the addition of the compound to be tested (3 parallel tests for each compound). […] Erythromycin was used as the control. Bacterial growth was monitored by measuring the absorbances of the samples at 620 nm at 0, 1, 2, 3, 4 and 24 hours. The sample plate was incubated at 37° C. in a shaker (250 rpm) between the measurements. Effects of the compounds on bacterial growth were evaluated by comparison of the growths of exposed and unexposed samples.
# Bacillus subtilis = assay: as above; conditions: for percent growth inhibition B. subtilis 4 h / percent growth inhibition B. subtilis 24 h: compound 1 mg/ml; for inhibition at 1000 µg/mL / inhibition at 0.1 µg/mL / inhibition at 1 µg/mL: Bacillus subtilis
# Experimental: as §1, §2
# bacteria = assay: antibacterial activity of compounds derived from betulin (summary statement); format: cell-based; conditions: already at a concentration of 1 μg/ml
# Source text: Erythromycin was used as the control.
# Staphylococcus aureus = assay: turbidometric bacterial growth inhibition on a 96 well plate; conditions: for percent growth inhibition S. aureus 4 h / percent growth inhibition S. aureus 24 h: compound 1 mg/ml; for inhibition at 1000 µg/mL / inhibition at 0.1 µg/mL / inhibition at 1 µg/mL: Staphylococcus aureus
# Experimental: as §1, §2
# S. epidermidis = assay: as above; conditions: for percent growth inhibition S. epidermidis 4 h / percent growth inhibition S. epidermidis 24 h: compound 1 mg/ml; for inhibition at 1000 µg/mL / inhibition at 0.1 µg/mL / inhibition at 1 µg/mL: Staphylococcus epidermidis
# Experimental: as §1, §2
# [1] = 4 h, read-out: percent growth inhibition M. luteus 4 h
# [2] = 24 h, read-out: percent growth inhibition M. luteus 24 h
# [3] = 4 h, read-out: percent growth inhibition B. subtilis 4 h
# [4] = 24 h, read-out: percent growth inhibition B. subtilis 24 h
# [5] = 4 h, read-out: percent growth inhibition S. aureus 4 h
# [6] = 24 h, read-out: percent growth inhibition S. aureus 24 h
# [7] = 4 h, read-out: percent growth inhibition S. epidermidis 4 h
# [8] = 24 h, read-out: percent growth inhibition S. epidermidis 24 h
Compound,percent growth inhibition M. luteus 4 h (Micrococcus luteus; 4 h),percent growth inhibition M. luteus 24 h (Micrococcus luteus; 24 h),percent growth inhibition B. subtilis 4 h (Bacillus subtilis; 4 h),percent growth inhibition B. subtilis 24 h (Bacillus subtilis; 24 h),percent growth inhibition S. aureus 4 h (Staphylococcus aureus; 4 h),percent growth inhibition S. aureus 24 h (Staphylococcus aureus; 24 h),percent growth inhibition S. epidermidis 4 h (S. epidermidis; 4 h),percent growth inhibition S. epidermidis 24 h (S. epidermidis; 24 h),further results
"C=C(C)[C@@H]1CC[C@]2(COC(=O)c3ccccc3NC(C)=O)CC[C@]3(C)C(CCC4[C@@]5(C)CC[C@H](O)C(C)(C)C5CC[C@]43C)C12 (stereo partly shown) [Compound 29, 28-N-acetylanthranilic acid ester of betulin]",89.9%,60.5%,100.8%,54.6%,102.6%,103.4%,66.6%,20.2%,antibacterial activity (bacteria): considerable antibacterial activity
"betulin 3,28-diacetate-18-19-diene [Compound 6]",0.0%,1.5%,0.0%,3.7%,0.0%,0.0%,0.0%,0.0%,
"C=C(C)[C@@H]1CC[C@]2(C(=O)NC(CC(=O)OC)C(=O)OC)CC[C@]3(C)C(CCC4[C@@]5(C)CCC(=O)C(C)(C)C5CC[C@]43C)C12 (stereo partly shown) [Compound 8, 28-aspartate dimethylesteramide of betulonic acid]",,,,,,,,,inhibition at 1000 µg/mL (Micrococcus luteus; [1]): 0%; inhibition at 1000 µg/mL (Micrococcus luteus; [2]): 0%; inhibition at 1000 µg/mL (Bacillus subtilis; [3]): 0%; inhibition at 1000 µg/mL (Bacillus subtilis; [4]): 5.8%; inhibition at 1000 µg/mL (Staphylococcus aureus; [5]): 0%; inhibition at 1000 µg/mL (Staphylococcus aureus; [6]): 0%; inhibition at 1000 µg/mL (S. epidermidis; [7]): 0%; inhibition at 1000 µg/mL (S. epidermidis; [8]): 0%
"C=C(C)[C@@H]1CC[C@]2(C(=O)O)CC[C@]3(C)[C@H](CC[C@@H]4[C@@]5(C)CCC(=O)C(C)(C)[C@@H]5CC[C@]43C)[C@@H]12 [Compound 5, betulonic acid]",91.3%,0.0%,102.3%,0.0%,51.6%,0.0%,52.7%,0.0%,antibacterial activity (bacteria): considerable antibacterial activity
"C=C(C)[C@@H]1CC[C@]2(COS(C)(=O)=O)CC[C@]3(C)[C@H](CC[C@@H]4[C@@]5(C)CC[C@H](OC(C)=O)C(C)(C)[C@@H]5CC[C@]43C)[C@@H]12 [Compound 25, betulin 3-acetate-28 mesylate]",1.6%,12.4%,0.0%,15.2%,6.9%,0.0%,3.2%,12.7%,
"3,28-octanedioic acid ester of betulin [Compound 10]",0.0%,2.7%,0.0%,2.6%,0.0%,0.0%,0.0%,1.7%,
"3,28-diisostearic acid ester of betulin [Compound 1]",8.8%,7.6%,0.0%,8.9%,2.1%,0.0%,0.0%,0.0%,
"3,28-C18-dialkenylsuccinic acid diester of betulin [Compound 20]",0.0%,12.6%,0.0%,9.0%,0.0%,0.0%,0.0%,0.0%,
"C=C(C)[C@@H]1CC[C@]2(COC(=O)COc3cc(C(C)C)ccc3C)CC[C@]3(C)[C@H](CC[C@@H]4[C@@]5(C)CC[C@H](O)C(C)(C)[C@@H]5CC[C@]43C)[C@@H]12 [Compound 23, 28-carvacrolacetic acid ester of betulin]",0.0%,0.1%,0.7%,7.3%,9.9%,11.1%,6.8%,0.0%,
28-C18-alkenylsuccinic acid diester of betulin [Compound 21],0.0%,10.1%,0.0%,6.9%,0.0%,0.0%,0.0%,0.0%,
"CC[C@H]1OC(=O)[C@H](C)[C@@H](O[C@H]2C[C@@](C)(OC)[C@@H](O)[C@H](C)O2)[C@H](C)[C@@H](O[C@@H]2O[C@H](C)C[C@H](N(C)C)[C@H]2O)[C@](C)(O)C[C@@H](C)C(=O)[C@H](C)[C@@H](O)[C@]1(C)O [Compound 31, erythromycin, reference compound]",,,,,,,,,inhibition at 0.1 µg/mL (Micrococcus luteus; [1]): 96.1%; inhibition at 1 µg/mL (Micrococcus luteus; [1]): 100%; inhibition at 0.1 µg/mL (Micrococcus luteus; [2]): 100%; inhibition at 1 µg/mL (Micrococcus luteus; [2]): 100%; inhibition at 0.1 µg/mL (Bacillus subtilis; [3]): 95.6%; inhibition at 1 µg/mL (Bacillus subtilis; [3]): 100%; inhibition at 0.1 µg/mL (Bacillus subtilis; [4]): 100%; inhibition at 1 µg/mL (Bacillus subtilis; [4]): 100%; inhibition at 0.1 µg/mL (Staphylococcus aureus; [5]): 53.6%; inhibition at 1 µg/mL (Staphylococcus aureus; [5]): 79.8%; inhibition at 0.1 µg/mL (Staphylococcus aureus; [6]): 11.7%; inhibition at 1 µg/mL (Staphylococcus aureus; [6]): 72.1%; inhibition at 0.1 µg/mL (S. epidermidis; [7]): 100%; inhibition at 1 µg/mL (S. epidermidis; [7]): 100%; inhibition at 0.1 µg/mL (S. epidermidis; [8]): 90.8%; inhibition at 1 µg/mL (S. epidermidis; [8]): 100%
"C=C(C)C1CCC2(COC(=O)C=Cc3ccccc3)CCC3(C)C(CCC4C5(C)CCC(O)C(C)(C)C5CCC43C)C12 (stereo not shown) [Compound 30, 28-cinnamic acid ester of betulin]",0.0%,0.0%,5.9%,11.1%,13.0%,0.0%,8.5%,0.0%,
